Reference: PubChem BioAssay (NCI)
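Exposure lasted 48 hours, with cells grown in 96-well plates and compounds tested at five concentrations. Abbreviation: GI50, concentration required for 50% inhibition of growth. The concentration for full growth arrest is given as TGI.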

Key:
Test in all cases: NCI anticancer screen, dose series, 48 h
BT-549 breast = tested on: BT-549 breast
NCI-H460 lung = tested on: NCI-H460 lung
K-562 leukemia = tested on: K-562 leukemia
HS 578T breast = tested on: HS 578T breast
HCT-116 colon = tested on: HCT-116 colon
HCT-15 colon = tested on: HCT-15 colon
HOP-92 NSCLC = tested on: HOP-92 NSCLC
A498 renal = tested on: A498 renal
SW-620 colon = tested on: SW-620 colon
SNB-19 CNS = tested on: SNB-19 CNS
SK-MEL-5 melanoma = tested on: SK-MEL-5 melanoma
RXF 393 renal = tested on: RXF 393 renal
SK-MEL-28 melanoma = tested on: SK-MEL-28 melanoma
CCRF-CEM leukemia = tested on: CCRF-CEM leukemia
IGROV1 ovarian = tested on: IGROV1 ovarian
SNB-75 CNS = tested on: SNB-75 CNS
HL-60(TB) leukemia = tested on: HL-60(TB) leukemia
KM12 colon = tested on: KM12 colon
UO-31 renal = tested on: UO-31 renal
OVCAR-8 ovarian = tested on: OVCAR-8 ovarian
OVCAR-5 ovarian = tested on: OVCAR-5 ovarian
MOLT-4 leukemia = tested on: MOLT-4 leukemia
RPMI-8226 leukemia = tested on: RPMI-8226 leukemia
UACC-257 melanoma = tested on: UACC-257 melanoma
T-47D breast = tested on: T-47D breast
SK-MEL-2 melanoma = tested on: SK-MEL-2 melanoma
A549 NSCLC = tested on: A549 NSCLC
SR leukemia = tested on: SR leukemia
MALME-3M melanoma = tested on: MALME-3M melanoma
M14 melanoma = tested on: M14 melanoma
EKVX NSCLC = tested on: EKVX NSCLC
ACHN renal = tested on: ACHN renal
SF-539 CNS = tested on: SF-539 CNS
HT29 colon = tested on: HT29 colon
UACC-62 melanoma = tested on: UACC-62 melanoma
OVCAR-3 ovarian = tested on: OVCAR-3 ovarian
MCF7 breast = tested on: MCF7 breast
COLO 205 colon = tested on: COLO 205 colon
NCI-H23 lung = tested on: NCI-H23 lung
NCI-H226 lung = tested on: NCI-H226 lung
HCC-2998 colon = tested on: HCC-2998 colon
SF-268 CNS = tested on: SF-268 CNS
SN12C renal = tested on: SN12C renal
TK-10 renal = tested on: TK-10 renal
CAKI-1 renal = tested on: CAKI-1 renal
786-0 renal = tested on: 786-0 renal
NCI-H522 lung = tested on: NCI-H522 lung
U251 CNS = tested on: U251 CNS
MDA-MB-435 = tested on: MDA-MB-435
HOP-62 NSCLC = tested on: HOP-62 NSCLC
LOX IMVI melanoma = tested on: LOX IMVI melanoma
DU-145 prostate = tested on: DU-145 prostate
NCI/ADR-RES ovarian = tested on: NCI/ADR-RES ovarian
OVCAR-4 ovarian = tested on: OVCAR-4 ovarian
PC-3 prostate = tested on: PC-3 prostate
SF-295 CNS = tested on: SF-295 CNS
MDA-MB-231 breast = tested on: MDA-MB-231 breast
SK-OV-3 ovarian = tested on: SK-OV-3 ovarian

## Cc1cc(I)cc(CN(C)CCN(C)C)c1O
BT-549 breast
  GI50: 26.8 µM
  TGI: > 78.3 µM
NCI-H460 lung
  GI50: 26.7 µM
  TGI: > 100 µM
K-562 leukemia
  GI50: 24.9 µM
  TGI: > 64.3 µM
HS 578T breast
  GI50: 26 µM
  TGI: > 69 µM
HCT-116 colon
  GI50: 24.9 µM
  TGI: > 100 µM
HCT-15 colon
  GI50: 28.5 µM
  TGI: 76.5 µM
HOP-92 NSCLC
  GI50: 17.1 µM
  TGI: 67.3 µM
A498 renal
  GI50: 33.8 µM
  TGI: > 77.9 µM
SW-620 colon
  GI50: 39.5 µM
  TGI: > 100 µM
SNB-19 CNS
  GI50: 64.3 µM
  TGI: > 100 µM
SK-MEL-5 melanoma
  GI50: 16.5 µM
  TGI: 30.3 µM
RXF 393 renal
  GI50: 25.5 µM
  TGI: > 84.8 µM
SK-MEL-28 melanoma
  GI50: 18.2 µM
  TGI: 33.4 µM
CCRF-CEM leukemia
  GI50: < 0.0354 µM
IGROV1 ovarian
  GI50: 27.7 µM
  TGI: 82.7 µM
SNB-75 CNS
  GI50: 21.9 µM
  TGI: 59.9 µM
HL-60(TB) leukemia
  GI50: 19.7 µM
  TGI: 55.9 µM
KM12 colon
  GI50: 46.3 µM
  TGI: > 100 µM
UO-31 renal
  GI50: 40.7 µM
  TGI: > 100 µM
OVCAR-8 ovarian
  GI50: 60 µM
  TGI: > 100 µM
OVCAR-5 ovarian
  GI50: 55.7 µM
  TGI: > 100 µM
MOLT-4 leukemia
  GI50: 26.6 µM
  TGI: > 68.6 µM
RPMI-8226 leukemia
  GI50: 15.5 µM
  TGI: 51.6 µM
UACC-257 melanoma
  GI50: 39.3 µM
  TGI: > 62 µM
T-47D breast
  GI50: 28.8 µM
  TGI: > 100 µM
SK-MEL-2 melanoma
  GI50: 22.1 µM
  TGI: 44.2 µM
A549 NSCLC
  GI50: 46.6 µM
  TGI: > 100 µM
SR leukemia
  GI50: 5.44 µM
  TGI: 50.4 µM
MALME-3M melanoma
  GI50: 18.9 µM
  TGI: 36.8 µM
M14 melanoma
  GI50: 16 µM
  TGI: 31.8 µM
EKVX NSCLC
  GI50: 61.5 µM
  TGI: > 100 µM
ACHN renal
  GI50: 39.6 µM
  TGI: > 100 µM
SF-539 CNS
  GI50: 30.7 µM
  TGI: > 82.8 µM
HT29 colon
  GI50: 19.4 µM
  TGI: 41.9 µM
UACC-62 melanoma
  GI50: 17.8 µM
  TGI: 33 µM
OVCAR-3 ovarian
  GI50: 41.9 µM
  TGI: > 100 µM
MCF7 breast
  GI50: 25.6 µM
  TGI: 66.1 µM
COLO 205 colon
  GI50: 17.3 µM
  TGI: 33.3 µM
NCI-H23 lung
  GI50: 33.1 µM
  TGI: > 100 µM
NCI-H226 lung
  GI50: 75.3 µM
  TGI: > 100 µM
HCC-2998 colon
  GI50: 16.3 µM
  TGI: 32.1 µM
SF-268 CNS
  GI50: 20.7 µM
  TGI: > 73 µM
SN12C renal
  GI50: 47.4 µM
  TGI: > 100 µM
TK-10 renal
  GI50: 33.1 µM
  TGI: > 100 µM
CAKI-1 renal
  GI50: 26.7 µM
  TGI: > 80.4 µM
786-0 renal
  GI50: 40.1 µM
  TGI: > 100 µM
NCI-H522 lung
  GI50: 36.8 µM
  TGI: > 100 µM
U251 CNS
  GI50: 39.2 µM
  TGI: > 100 µM
MDA-MB-435
  GI50: 18.8 µM
  TGI: 48.9 µM
HOP-62 NSCLC
  GI50: 37.8 µM
  TGI: > 100 µM
LOX IMVI melanoma
  GI50: 24.4 µM
  TGI: > 73.1 µM
DU-145 prostate
  GI50: 44.4 µM
  TGI: > 100 µM
NCI/ADR-RES ovarian
  GI50: 38.1 µM
  TGI: > 100 µM
OVCAR-4 ovarian
  GI50: 52.2 µM
  TGI: > 100 µM
PC-3 prostate
  GI50: 29.1 µM
  TGI: > 100 µM
SF-295 CNS
  GI50: 20.5 µM
  TGI: 56.8 µM
MDA-MB-231 breast
  GI50: 26.7 µM
  TGI: > 72.3 µM
SK-OV-3 ovarian
  GI50: 76.6 µM
  TGI: > 100 µM
